Laboratory results reported in PubChem BioAssay AID1963835 (Molecular Pharmacology Branch, DTP, NCI, 2024).
“And” between values parts separate entries of the source, which are not always exact repeats. Identical values can stand only once.

Test system: 699152-130-R-J1-PDC complex spheroid viability
Assay: Anticancer human tumor 699152-130-R-J1-PDC patient-derived pancreatic carcinoma cell line growth inhibition [POLQ]
Conditions: for viability, T/C: stronger effect = lower value
In short: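 Growth inhibition in 3D: complex spheroids (tumor PDC, HUVEC, MSC) treated with POLQ inhibitor combinations; where Cmax unknown, highest tested concentration 10 microM, except SN-38 at 1 microM.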

[1] = curve of first compound, second compound 0.0316 µM
[2] = curve of first compound, second compound 0.1 µM
[3] = curve of first compound, second compound 0.316 µM
[4] = curve of first compound, second compound 1 µM
[5] = curve of first compound, second compound 3.16 µM
[6] = curve of first compound, second compound 10 µM
[7] = second compound 0.0316 µM, first compound 0.0316 µM
[8] = second compound 0.0316 µM, first compound 0.1 µM
[9] = second compound 0.0316 µM, first compound 0.316 µM
[10] = second compound 0.0316 µM, first compound 1 µM
[11] = second compound 0.0316 µM, first compound 3.16 µM
[12] = second compound 0.0316 µM, first compound 10 µM
[13] = second compound 0.1 µM, first compound 0.0316 µM
[14] = second compound 0.1 µM, first compound 0.1 µM
[15] = second compound 0.1 µM, first compound 0.316 µM
[16] = second compound 0.1 µM, first compound 1 µM
[17] = second compound 0.1 µM, first compound 3.16 µM
[18] = second compound 0.1 µM, first compound 10 µM
[19] = second compound 0.316 µM, first compound 0.0316 µM
[20] = second compound 0.316 µM, first compound 0.1 µM
[21] = second compound 0.316 µM, first compound 0.316 µM
[22] = second compound 0.316 µM, first compound 1 µM
[23] = second compound 0.316 µM, first compound 3.16 µM
[24] = second compound 0.316 µM, first compound 10 µM
[25] = second compound 1 µM, first compound 0.0316 µM
[26] = second compound 1 µM, first compound 0.1 µM
[27] = second compound 1 µM, first compound 0.316 µM
[28] = second compound 1 µM, first compound 1 µM
[29] = second compound 1 µM, first compound 3.16 µM
[30] = second compound 1 µM, first compound 10 µM
[31] = second compound 3.16 µM, first compound 0.0316 µM
[32] = second compound 3.16 µM, first compound 0.1 µM
[33] = second compound 3.16 µM, first compound 0.316 µM
[34] = second compound 3.16 µM, first compound 1 µM
[35] = second compound 3.16 µM, first compound 3.16 µM
[36] = second compound 3.16 µM, first compound 10 µM
[37] = second compound 10 µM, first compound 0.0316 µM
[38] = second compound 10 µM, first compound 0.1 µM
[39] = second compound 10 µM, first compound 0.316 µM
[40] = second compound 10 µM, first compound 1 µM
[41] = second compound 10 µM, first compound 3.16 µM
[42] = second compound 10 µM, first compound 10 µM
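Also: spheroids exposed to agents for 7 days before viability reading.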
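For viability, T/C in this document: percent of DMSO vehicle control viability so 100% = vehicle and 0% = no viable signal.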

In the case of Nc1ccn(C2OC(CO)C(O)C2(F)F)c(=O)n1 (centres undefined) + Nc1ccc(C#CCN(C(=O)Cc2ncc(C(F)(F)F)cc2C(F)(F)F)c2ccc(F)cc2)nn1, the IC50 [1] is reported as 0.476 µM, the IC50 [2] is reported as 0.771 µM and the IC50 [3] is reported as 1.77 µM. The IC50 [4] was 2.37 µM, the IC50 [5] was 1.44 µM and the IC50 [6] was 2.16 µM. It also gave a viability, T/C [7] of 71.5%, a viability, T/C [8] of 58.8% and a viability, T/C [9] of 50.5%. The viability, T/C [10] was 46.9%, the viability, T/C [11] was 50% and the viability, T/C [12] was 43%. For the same compound, the viability, T/C [13] was 78.4%, the viability, T/C [14] was 65.5% and the viability, T/C [15] was 52%. It also gave a viability, T/C [16] of 46%, a viability, T/C [17] of 55.6% and a viability, T/C [18] of 37.5%. The viability, T/C [19] was 81.3%, the viability, T/C [20] was 60.5% and the viability, T/C [21] was 55.9%. The viability, T/C [22] was 55.4%, the viability, T/C [23] was 49.6% and the viability, T/C [24] was 44.6%. The viability, T/C [25] was 79.2%, the viability, T/C [26] was 63.9% and the viability, T/C [27] was 57.4%. The viability, T/C [28] was 58.5%, the viability, T/C [29] was 51.5% and the viability, T/C [30] was 41%. It also gave a viability, T/C [31] of 84.2%, a viability, T/C [32] of 68.3% and a viability, T/C [33] of 55.2%. For the same compound, the viability, T/C [34] was 55.3%, the viability, T/C [35] was 49% and the viability, T/C [36] was 40%. For the same compound, the viability, T/C [37] was 103%, the viability, T/C [38] was 82.8% and the viability, T/C [39] was 63.1%. It also gave a viability, T/C [40] of 52.8%, a viability, T/C [41] of 50.9% and a viability, T/C [42] of 44.9%.
For C#Cc1c(F)ccc2cc(O)cc(-c3ncc4c(N5CC6CCC(C5)N6)nc(OCC56CCCN5CC(F)C6)nc4c3F)c12 (centres undefined), the viability, T/C (compound 0.0316 µM) was 24.6% and 29.7% and 27.3%, the viability, T/C (compound 0.1 µM) was 19.7% and 18.3% and 19.8% and the viability, T/C (compound 0.316 µM) was 18.1% and 15.8% and 16.3%. For the same compound, the viability, T/C (compound 1 µM) was 15% and 13.9% and 15.6%, the viability, T/C (compound 3.16 µM) was 14.4% and 11.4% and 13.7% and the viability, T/C (compound 10 µM) was 12.7% and 13.8% and 11%. For the same compound, the IC50 (curve of compound) was under 0.0316 µM.
With CCc1c2c(nc3ccc(O)cc13)-c1cc3c(c(=O)n1C2)COC(=O)[C@]3(O)CC the viability, T/C (compound 0.00316 µM) was 79.8% and 73.5% and 71.1%, the viability, T/C (compound 0.01 µM) was 59.2% and 56% and 49.9% and the viability, T/C (compound 0.0316 µM) was 55.4% and 52.2% and 41.7%. The viability, T/C (compound 0.1 µM) was 45.9% and 44.3% and 37.6%, the viability, T/C (compound 0.316 µM) was 24.9% and 35.3% and 28.6% and the viability, T/C (compound 1 µM) was 7.27% and 9.92% and 8.91%. For the same compound, the IC50 (curve of compound) was 0.0471 µM and 0.0383 µM and 0.0191 µM.
With O=C(c1cc(Cc2n[nH]c(=O)c3ccccc23)ccc1F)N1CCN(C(=O)C2CC2)CC1 + COC1C(OC(N)=O)C(O)C(Oc2ccc3c(O)c(NC(=O)c4ccc(O)c(CC=C(C)C)c4)c(=O)oc3c2C)OC1(C)C the IC50 [1] was under 0.0316 µM, the IC50 [2] was under 0.0316 µM and the IC50 [3] was under 0.0316 µM. The IC50 [4] was under 0.0316 µM, the IC50 [5] was under 0.0316 µM and the IC50 [6] was under 0.0316 µM. For the same compound, the viability, T/C [7] was 38.8%, the viability, T/C [8] was 37.8% and the viability, T/C [9] was 35.3%. For the same compound, the viability, T/C [10] was 40.3%, the viability, T/C [11] was 35.7% and the viability, T/C [12] was 34%. It also gave a viability, T/C [13] of 42.7%, a viability, T/C [14] of 37.2% and a viability, T/C [15] of 38.5%. For the same compound, the viability, T/C [16] was 43.9%, the viability, T/C [17] was 37.2% and the viability, T/C [18] was 29.8%. For the same compound, the viability, T/C [19] was 40%, the viability, T/C [20] was 41.5% and the viability, T/C [21] was 40.6%. The viability, T/C [22] was 36.5%, the viability, T/C [23] was 33.6% and the viability, T/C [24] was 32.3%. It also gave a viability, T/C [25] of 41.6%, a viability, T/C [26] of 39.7% and a viability, T/C [27] of 36.9%. For the same compound, the viability, T/C [28] was 37.4%, the viability, T/C [29] was 39.6% and the viability, T/C [30] was 35.1%. For the same compound, the viability, T/C [31] was 39%, the viability, T/C [32] was 42.9% and the viability, T/C [33] was 41.3%. It also gave a viability, T/C [34] of 40.7%, a viability, T/C [35] of 36.8% and a viability, T/C [36] of 36.9%. It also gave a viability, T/C [37] of 38.3%, a viability, T/C [38] of 36.2% and a viability, T/C [39] of 36.2%. The viability, T/C [40] was 40.2%, the viability, T/C [41] was 42.9% and the viability, T/C [42] was 31.1%.
For COc1cccc(OCCCN)c1-c1cc(Nc2cnc(C#N)cn2)n[nH]1, the viability, T/C (compound 0.00316 µM) was 94% and 98.1% and 84.3%, the viability, T/C (compound 0.01 µM) was 84.5% and 83.7% and 91.9% and the viability, T/C (compound 0.0316 µM) was 66% and 60% and 74.3%. For the same compound, the viability, T/C (compound 0.1 µM) was 56.1% and 57.8% and 62.7%, the viability, T/C (compound 0.316 µM) was 55.3% and 56.8% and 60.6% and the viability, T/C (compound 1 µM) was 50.4% and 52.5% and 58.4%. It also gave an IC50 (curve of compound) of over 1 µM.
With CC1COCCN1c1cc(C2(S(C)(=N)=O)CC2)nc(-c2ccnc3[nH]ccc23)n1 (centres undefined) + Nc1ccc(C#CCN(C(=O)Cc2ncc(C(F)(F)F)cc2C(F)(F)F)c2ccc(F)cc2)nn1 the IC50 [1] was over 10 µM, the IC50 [2] was over 10 µM and the IC50 [3] was over 10 µM. The IC50 [4] was over 10 µM, the IC50 [5] was over 10 µM and the IC50 [6] was over 10 µM. The viability, T/C [7] was 109%, the viability, T/C [8] was 100% and the viability, T/C [9] was 89.4%. The viability, T/C [10] was 88.7%, the viability, T/C [11] was 75.8% and the viability, T/C [12] was 68.9%. The viability, T/C [13] was 106%, the viability, T/C [14] was 92.7% and the viability, T/C [15] was 96.6%. For the same compound, the viability, T/C [16] was 97.6%, the viability, T/C [17] was 76.2% and the viability, T/C [18] was 62.3%. It also gave a viability, T/C [19] of 104%, a viability, T/C [20] of 113% and a viability, T/C [21] of 110%. For the same compound, the viability, T/C [22] was 94.4%, the viability, T/C [23] was 80.1% and the viability, T/C [24] was 68.9%. For the same compound, the viability, T/C [25] was 114%, the viability, T/C [26] was 96.1% and the viability, T/C [27] was 99.9%. The viability, T/C [28] was 86%, the viability, T/C [29] was 74.7% and the viability, T/C [30] was 66.1%. For the same compound, the viability, T/C [31] was 108%, the viability, T/C [32] was 93.4% and the viability, T/C [33] was 123%. It also gave a viability, T/C [34] of 113%, a viability, T/C [35] of 88.1% and a viability, T/C [36] of 76.6%. The viability, T/C [37] was 110%, the viability, T/C [38] was 105% and the viability, T/C [39] was 106%. For the same compound, the viability, T/C [40] was 95.5%, the viability, T/C [41] was 82.6% and the viability, T/C [42] was 77.2%.
O=C(Nc1ccc(O)c(NS(=O)(=O)c2ccc(F)cc2)c1)c1ccc(-c2ccccc2)cc1 + COC1C(OC(N)=O)C(O)C(Oc2ccc3c(O)c(NC(=O)c4ccc(O)c(CC=C(C)C)c4)c(=O)oc3c2C)OC1(C)C gave an IC50 [1] of over 10 µM, an IC50 [2] of over 10 µM and an IC50 [3] of over 10 µM. The IC50 [4] was over 10 µM, the IC50 [5] was over 10 µM and the IC50 [6] was over 10 µM. For the same compound, the viability, T/C [7] was 105%, the viability, T/C [8] was 123% and the viability, T/C [9] was 117%. For the same compound, the viability, T/C [10] was 104%, the viability, T/C [11] was 122% and the viability, T/C [12] was 80.8%. It also gave a viability, T/C [13] of 103%, a viability, T/C [14] of 104% and a viability, T/C [15] of 117%. The viability, T/C [16] was 101%, the viability, T/C [17] was 101% and the viability, T/C [18] was 94.6%. For the same compound, the viability, T/C [19] was 103%, the viability, T/C [20] was 101% and the viability, T/C [21] was 95.7%. For the same compound, the viability, T/C [22] was 101%, the viability, T/C [23] was 117% and the viability, T/C [24] was 77.3%. For the same compound, the viability, T/C [25] was 115%, the viability, T/C [26] was 99.6% and the viability, T/C [27] was 97.2%. It also gave a viability, T/C [28] of 94.5%, a viability, T/C [29] of 103% and a viability, T/C [30] of 82.3%. For the same compound, the viability, T/C [31] was 108%, the viability, T/C [32] was 111% and the viability, T/C [33] was 113%. The viability, T/C [34] was 119%, the viability, T/C [35] was 105% and the viability, T/C [36] was 89.5%. The viability, T/C [37] was 95.3%, the viability, T/C [38] was 107% and the viability, T/C [39] was 102%. It also gave a viability, T/C [40] of 95.5%, a viability, T/C [41] of 103% and a viability, T/C [42] of 86.3%.
